Laboratory results published in US4459290A, “C-23-Modified derivatives of OMT, pharmaceutical compositions and method of use” (priority 1982, dated 1984).
Converted amounts (≈) assume the structure as drawn. Where two headings read alike, the source gives them in different places.

Experiments:
[1] = tested on: Streptococcus pyogenes C203; assay: ED50 in mice experimentally infected with S. pyogenes C203 (Table VIII); type: in vivo
Description: The C-23 modified derivatives of OMT of this invention have shown in vivo antimicrobial activity against experimental infections. When two doses of test compound were administered to mice experimentally infected with a gram-positive bacterium, S. pyogenes C203, the activity observed was measured as an ED50 value [effective dose in mg/kg to protect 50% of the test animals: see Warren Wick, et al., J. Bacteriol. 81, 233-235 (1961)].

[2] = tested on: Staphylococcus epidermidis EPI2; assay: MIC, standard agar-dilution assay (Table V); type: cell-based; conditions: Staphylococcus epidermidis; S. epidermidis EPI2; agar dilution; read-out: MIC
Description: (§1) Especially noteworthy is the improved activity against gram-negative bacteria for several derivatives when compared to the activity of OMT. […] The MIC's in Tables V and VI were determined by standard agar-dilution assays. The MIC's in Table VII were obtained using a conventional broth-dilution microtiter test.

Streptococcus Group 9960 = assay: MIC, standard agar-dilution assay (Table V); type: cell-based; conditions: GROUP9960; Streptococcus Group 9960; agar dilution; read-out: MIC
Description: as §1

[3] = tested on: Staphylococcus aureus X400; assay: MIC, standard agar-dilution assay (Table V); type: cell-based; conditions: Staphylococcus aureus, X400
Description: as §1

[4] = tested on: Staphylococcus aureus S13E; assay: MIC, standard agar-dilution assay (Table V); type: cell-based; conditions: Staphylococcus aureus, S13E
Description: as §1

[5] = tested on: Streptococcus Group D X66; assay: MIC, standard agar-dilution assay (Table V); type: cell-based; conditions: Streptococcus Group D X66; agar dilution; read-out: MIC
Description: as §1

Escherichia coli EC14 = assay: MIC, standard agar-dilution assay (Table V); type: cell-based; conditions: Escherichia coli, EC14
Procedure, shortened: (§2)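 Growth inhibition in liquid medium, in a routine microtiter broth-dilution series, gave the MIC against staphylococci and pasteurellae; the gram-negative enteric strain was tested by conventional agar dilution instead.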

[6] = tested on: Klebsiella pneumoniae KAE; assay: MIC, standard agar-dilution assay (Table V); type: cell-based; conditions: Klebsiella pneumoniae
Procedure, shortened: as §2

Shigella sonnei N9 = assay: MIC, standard agar-dilution assay (Table V); type: cell-based
Procedure, shortened: as §2

[7] = tested on: Staphylococcus aureus X1.1; assay: MIC, standard agar-dilution assay (Table V); type: cell-based; conditions: Staphylococcus aureus, X1.1
Description: as §1

[8] = tested on: Klebsiella pneumoniae X26; assay: MIC, standard agar-dilution assay (Table V); type: cell-based; conditions: Klebsiella pneumoniae, X26
Description: as §1

[9] = tested on: Staphylococcus aureus V41; assay: MIC, standard agar-dilution assay (Table V); type: cell-based; conditions: Staphylococcus aureus, V41
Description: as §1

[10] = tested on: Staphylococcus epidermidis EPI1; assay: MIC, standard agar-dilution assay (Table V); type: cell-based; conditions: Staphylococcus epidermidis; S. epidermidis EPI1; agar dilution; read-out: MIC
Description: as §1

Escherichia coli N10 = assay: MIC, standard agar-dilution assay (Table V); type: cell-based; conditions: Escherichia coli, N10
Procedure, shortened: as §2

[11] = tested on: Salmonella heidelberg X514; assay: MIC, standard agar-dilution assay (Table VI); type: cell-based; conditions: Salmonella enterica, X514
Description: as §1

Proteus morganii PR15 = assay: MIC, standard agar-dilution assay (Table VI); type: cell-based; conditions: Morganella morganii, PR15
Description: as §1

[12] = tested on: Klebsiella pneumoniae X68; assay: MIC, standard agar-dilution assay (Table VI); type: cell-based; conditions: X68
Description: as §1

Proteus rettgeri C24 = assay: MIC, standard agar-dilution assay (Table VI); type: cell-based; conditions: Providencia rettgeri, P. rettgeri C24
Description: as §1

Salmonella typhi 1335 = assay: MIC, standard agar-dilution assay (Table VI); type: cell-based; conditions: Salmonella enterica
Description: as §1

Proteus inconstans PR33 = assay: MIC, standard agar-dilution assay (Table VI); type: cell-based; conditions: Providencia alcalifaciens, PR33
Description: as §1

Proteus rettgeri PR7 = assay: MIC, standard agar-dilution assay (Table VI); type: cell-based; conditions: Providencia rettgeri; P. rettgeri PR7; agar dilution; read-out: MIC
Description: as §1

[13] = tested on: Pseudomonas aeruginosa Ps18; assay: MIC, standard agar-dilution assay (Table VI); type: cell-based; conditions: PS18
Description: as §1

Serratia marcescens X99 = assay: MIC, standard agar-dilution assay (Table VI); type: cell-based; conditions: X99
Description: as §1

[14] = tested on: Pseudomonas aeruginosa X239; assay: MIC, standard agar-dilution assay (Table VI); type: cell-based; conditions: X239
Description: as §1

[15] = tested on: Pasteurella multocida 68C; assay: MIC, broth-dilution microtiter test (Table VII); type: cell-based; conditions: Pasteurella multocida; P. multocida 68C; broth-dilution microtiter; read-out: MIC
Procedure, shortened: (§3)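 Conventional dilution MICs: agar for Enterobacter, microtiter broth for Staphylococcus and Pasteurella.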

Staphylococcus aureus = assay: MIC, broth-dilution microtiter test (Table VII); type: cell-based; conditions: Staphylococcus aureus
Procedure, shortened: as §3

[16] = tested on: Pasteurella multocida 22A; assay: MIC, broth-dilution microtiter test (Table VII); type: cell-based; conditions: Pasteurella multocida; P. multocida 22A; broth-dilution microtiter; read-out: MIC
Procedure, shortened: as §3

[17] = tested on: Pasteurella hemolytica 41D; assay: MIC, broth-dilution microtiter test (Table VII); type: cell-based; conditions: Pasteurella, P. hemolytica 41D, read-out: MIC
Procedure, shortened: as §3

Mycoplasma hyorhinis = assay: MIC, broth-dilution microtiter test (Table VII); type: cell-based; conditions: M. hyorhinis; broth-dilution microtiter; read-out: MIC
Description: as §1

[18] = tested on: Pasteurella multocida 60A; assay: MIC, broth-dilution microtiter test (Table VII); type: cell-based; conditions: Pasteurella multocida; P. multocida 60A, avian isolate; broth-dilution microtiter; read-out: MIC
Procedure, shortened: as §3

[19] = tested on: Pasteurella multocida 40G; assay: MIC, broth-dilution microtiter test (Table VII); type: cell-based; conditions: Pasteurella multocida; P. multocida 40G; broth-dilution microtiter; read-out: MIC
Procedure, shortened: as §3

[20] = tested on: Pasteurella hemolytica 22C; assay: MIC, broth-dilution microtiter test (Table VII); type: cell-based; conditions: Pasteurella, P. hemolytica 22C, read-out: MIC
Procedure, shortened: as §3

Mycoplasma synoviae = assay: MIC, broth-dilution microtiter test (Table VII); type: cell-based; conditions: Mycoplasmopsis synoviae; M. synoviae; broth-dilution microtiter; read-out: MIC
Description: as §1

[21] = tested on: Pasteurella multocida 17E; assay: MIC, broth-dilution microtiter test (Table VII); type: cell-based; conditions: Pasteurella multocida; P. multocida 17E, bovine isolate; broth-dilution microtiter; read-out: MIC
Procedure, shortened: as §3

Streptococcus sp. 80 = assay: MIC, broth-dilution microtiter test (Table VII); type: cell-based; conditions: Streptococcus, SP.80
Description: as §1

Mycoplasma gallisepticum = assay: MIC, broth-dilution microtiter test (Table VII); type: cell-based; conditions: Mycoplasmoides gallisepticum
Description: as §1

[22] = tested on: Pasteurella hemolytica 23C; assay: MIC, broth-dilution microtiter test (Table VII); type: cell-based; conditions: Pasteurella, P. hemolytica 23C, read-out: MIC
Procedure, shortened: as §3

CCC1OC(=O)CC(O)C(C)C(OC2OC(C)C(O)C(N(C)C)C2O)C(CC=O)CC(C)C(=O)C=CC(C)=CC1CSc1nnnn1C (centres unmarked) [Compound 5, 23-Deoxy-23-(1-methyltetrazol-5-yl)thio-OMT]
ED50 ([1]; C203, po, read-out: ED50, Oral): > 100 mg/kg | ED50 ([1]; C203, sc, mice, subcutaneous, doses given 1 and 4 hours postinfection, read-out: ED50, Subcutaneous): 13.7 mg/kg | MIC [2]: 0.5 µg/mL (≈ 0.719 µM) | MIC (Streptococcus Group 9960): 0.5 µg/mL (≈ 0.719 µM) | MIC [3]: 0.5 µg/mL (≈ 0.719 µM) | MIC [4]: 0.5 µg/mL (≈ 0.719 µM) | MIC [5]: 0.5 µg/mL (≈ 0.719 µM) | MIC (Escherichia coli EC14): 64 µg/mL (≈ 92 µM) | MIC [6]: > 128 µg/mL | MIC (Shigella sonnei N9): 64 µg/mL (≈ 92 µM) | MIC [7]: 0.5 µg/mL (≈ 0.719 µM) | MIC [8]: 4 µg/mL (≈ 5.75 µM) | MIC [9]: 0.5 µg/mL (≈ 0.719 µM) | MIC [10]: 0.25 µg/mL (≈ 0.359 µM) | MIC (Escherichia coli N10): > 128 µg/mL | MIC [11]: > 128 µg/mL | MIC (Proteus morganii PR15): > 128 µg/mL | MIC [12]: > 128 µg/mL | MIC (Proteus rettgeri C24): 64 µg/mL (≈ 92 µM) | MIC (Salmonella typhi 1335): > 128 µg/mL | MIC (Proteus inconstans PR33): > 128 µg/mL | MIC (Proteus rettgeri PR7): 64 µg/mL (≈ 92 µM) | MIC [13]: > 128 µg/mL | MIC (Serratia marcescens X99): > 128 µg/mL | MIC [14]: > 128 µg/mL | MIC [15]: 6.25 µg/mL (≈ 8.98 µM) | MIC (Staphylococcus aureus): 1.56 µg/mL (≈ 2.24 µM) | MIC [16]: 6.25 µg/mL (≈ 8.98 µM) | MIC [17]: 12.5 µg/mL (≈ 18 µM) | MIC (Mycoplasma hyorhinis): 6.25 µg/mL (≈ 8.98 µM) | MIC [18]: 6.25 µg/mL (≈ 8.98 µM) | MIC [19]: 3.12 µg/mL (≈ 4.48 µM) | MIC [20]: 12.5 µg/mL (≈ 18 µM) | MIC (Mycoplasma synoviae): 0.78 µg/mL (≈ 1.12 µM) | MIC [21]: 6.25 µg/mL (≈ 8.98 µM) | MIC (Streptococcus sp. 80): 1.56 µg/mL (≈ 2.24 µM) | MIC (Mycoplasma gallisepticum): 1.56 µg/mL (≈ 2.24 µM) | MIC [22]: 12.5 µg/mL (≈ 18 µM)
